Reference: patent US20080207750A1, “Use of N-Chlorotaurine for Treatment of Oozing Tissue Deficiencies” (Pathogenics LLC, priority 2002, published 2008)

What was measured:
[1] = Storage stability of aqueous NCT solutions; assay type: physicochemical; details: 1% (55 mM) aqueous solution stored at 2-4° C.
Procedure: (§1) Reagents: Pure NCT as a crystalline sodium salt was dissolved in sterile distilled water to a concentration of 1% (55 mM). Purity was verified by iodometric titration and spectrophotometry. […] Solutions were stored at 2-4° C., where they are stable for 1 year, and allowed to reach room temperature before application to the patients.

outer ear canal = experiment: Pilot study (open phase IIa): irrigation of the external auditory canal with 1% NCT after tympanoplasty; assay type: in vivo, human; details: 12 patients
Procedure: Procedures: Local irrigations of the external auditory canal with 3 ml of 1% N-chlorotaurine solution were performed once daily until the canal was dry.
as §1
Study Design: An open phase IIa study was performed in 12 patients after tympanoplasty. They received a single-shot antibiotic therapy with 2 g Spizef (cefotiam) i.v. perioperatively.
All subjects were treated with 1% N-chlorotaurine.
Subjects: The study population included 6 female and 6 male human patients, ranging in age from 32 to 66 years (median 48,1 years). Inclusion criteria was status post tympanoplasty. Exclusion criteria included topical treatment with other agents, systemic application of antibiotics or corticoids, pregnancy, and simultaneous participation in another study. No patients had to be withdrawn after inclusion.
Treatment and Time Course: After removing the ear-tamponade, which remained in place for 2 to 3 weeks postoperatively, 3 ml of the 1% aqueous NCT solution was applied once daily to the outer ear canal. The endpoint of the treatment was defined as a completely dry canal, corresponding to a clinical score of zero (see below for scoring).
Evaluation and Statistical Analysis: The primary criterion for the judgement of the status of the external meatus was a six-scale clinical score (0-5) based on visual observation via ear microscopy (zero=dry outer ear canal; 5=moist outer ear canal with inflammation).
The second criterion was subjective pain, ascertained by a visual analogue scale.
Clinical examination of the outer ear canal was performed daily for detection of moisture, signs of infection, and judgement of epithelisation of the neo-tympanon.
A completely dry external meatus (score zero) was considered as the endpoint criterion for the termination of the study.
Before and at the end of the study an audiogram was performed in all patients.
Moisture and inflammation of the external auditory canal during and after irrigation with NCT were compared to those before treatment using the Wilcoxon test. P-values<0.05 were considered to indicate statistical significance. Due to the limited number of patients no corrections for multiple comparisons were applied.

[2] = pH of aqueous solutions of NCT; assay type: physicochemical
Procedure: as §1

[3] = test system: open leg ulcer with fibrous coating; experiment: Treatment of open leg ulcer with fibrous coating with wound dressing soaked with aqueous 1% NCT solution; assay type: in vivo, human; details: Example 3: person, burn accident; dressing soaked with aqueous 1% NCT two times daily
Procedure: A human patient suffering from an open leg ulcer with fibrous coating caused by a burn accident was treated two times daily with wound dressing soaked with aqueous 1% NCT solution. […] Microbiological cultures of swabs before and after therapy were sterile.

oozing ear channel = experiment: Treatment of the oozing ear channel after tympanoplasty with aqueous 1% NCT solution (case reports); assay type: in vivo, human; details: for time until oozing ceased / complete epithelization achieved earlier than by the conventional treatment with fuchsine / incorporation of the temporal fascia: tympanoplasty
Source text: Rinsing the ear channel with NCT solution provokes in general a drying of the ear channel and the tympanoplastic within 1-2 days.
A human patient with a traumatic perforation of the tympanic membrane was provided with a tympanoplasty. After removing incrustations and granulation tissue, the destroyed tympanic membrane was excised and substituted by a fascia temporalis. After taking away the tamponade, the microbiological culture of a swab from the reconstructed tympanic membrane and the ear channel was sterile. Subsequently, the oozing ear channel was treated one time daily for two days by instillation of 2 mL of aqueous 1% NCT solution. […] The complete epithelization was achieved 3 days earlier than by the conventional treatment with fuchsine.
A human patient suffering from a perforation of the tympanic membrane caused by a chronic inflammation of the middle ear received tympanoplasty. After removing incrustations and granulation tissue, the destroyed tympanic membrane was excised and substituted by a fascia temporalis. After taking away the tamponade, the microbiological culture of a swab from the reconstructed tympanic membrane and the ear channel was sterile. Subsequently, the oozing and swollen ear channel was treated one time daily for five days by instillation of 2 mL of aqueous 1% NCT solution. […] The complete epithelization was achieved 3 days earlier than by the conventional treatment with fuchsine.

[4] = 3 ml 1% NCT once daily, score zero = dry outer ear canal
[5] = Example 1: person, 2 mL aqueous 1% NCT one time daily for two days
[6] = Example 2: person, 2 mL aqueous 1% NCT one time daily for five days

O=S(=O)(O)CCNCl [NCT, N-chlorotaurine]
stability of solutions on storage [1]: 1 year | dizziness or nystagmus (outer ear canal; 3 ml 1% NCT once daily): No dizziness or nystagmus occurred | drying of the outer ear canal (outer ear canal; 3 ml 1% NCT once daily): Rapid drying of the outer ear canal was detected in all patients | epithelisation of the new tympanon on ear microscopy (outer ear canal; 3 ml 1% NCT once daily): proceeded regularly without granulation | infection in the postoperative course (outer ear canal; 3 ml 1% NCT once daily): No infection occurred | time needed for complete epithelisation (mean±SD) (outer ear canal; 3 ml 1% NCT once daily): 22.6 ± 3.5 days | time needed for complete epithelisation (range) (outer ear canal; 3 ml 1% NCT once daily): 18 to 31 days | tolerability of treatment (outer ear canal; 3 ml 1% NCT once daily): tolerated very well by all patients | average clinical score (0-5) of the outer ear canal (outer ear canal; 3 ml 1% NCT once daily, days 2-5 vs. baseline day 1, Wilcoxon test): decreased daily | necessary time for achieving a score of zero (mean±SD) (outer ear canal; [4]): 2.75 ± 0.87 days | necessary time for achieving a score of zero (range) (outer ear canal; [4]): 2 to 5 days | subjective pain (outer ear canal; 3 ml 1% NCT once daily, visual analogue scale): without occurrence of any pain | damage to the inner ear (outer ear canal; audiogram before and after treatment): no signs of damage to the inner ear | allergic reactions (outer ear canal; whole period of treatment): no signs of allergic reactions | pH [2]: 8 | healing process [3]: went on without problems | treatment time until the fibrous coating disappeared [3]: three | time until oozing ceased (oozing ear channel; Example 1: person, 2 mL aqueous 1% NCT instilled one time daily for two days): one | complete epithelization achieved earlier than by the conventional treatment with fuchsine (oozing ear channel; [5]): 3 days | incorporation of the temporal fascia (oozing ear channel; [5]): proceeded without problems | time until oozing ceased (oozing ear channel; Example 2: person, 2 mL aqueous 1% NCT instilled one time daily for five days): three | complete epithelization achieved earlier than by the conventional treatment with fuchsine (oozing ear channel; [6]): 3 days | incorporation of the temporal fascia (oozing ear channel; [6]): proceeded without problems | drying of the ear channel and the tympanoplastic (oozing ear channel; rinsing the ear channel with NCT solution, in general): 1 to 2 days
